According to the supplement of paper PMC5908809:

What was measured:
Experiment in all cases: percent inhibition of viability; higher = more inhibition
[1] = test system: normal NK cells expanded with K562-aAPC; settings: 72 h, IL-2 2.5 ng/mL
Protocol: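 Drug sensitivity and resistance testing on K562-aAPC-expanded normal NK cells: 5 concentrations (10-fold steps over a 10,000-fold range), 72 h at 37 °C, viability by CellTiter-Glo normalised to DMSO and benzethonium chloride controls; DSS from the fitted curve.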

[2] = test system: DERL-7 (IL-2 2.5 ng/mL); settings: 72 h
[3] = test system: IMC-1 (IL-2 20 ng/mL); settings: 72 h
[4] = test system: KAI3 (IL-2 2.5 ng/mL); settings: 72 h
[5] = test system: KHYG-1 (IL-2 2.5 ng/mL); settings: 72 h
[6] = test system: NK-92 (IL-2 2.5 ng/mL); settings: 72 h
[7] = test system: NK-YS (IL-2 2.5 ng/mL); settings: 72 h
[8] = test system: NKL (IL-2 2.5 ng/mL); settings: 72 h
[9] = test system: SNK-6 (IL-2 2.5 ng/mL); settings: 72 h

S=P(N1CC1)(N1CC1)N1CC1 [Thio-TEPA] (max concentration tested 50000 nM)
percent inhibition of viability [%]
Settings | [1] | [2] | [3] | [4] | [5] | [6] | [7] | [8] | [9]
5 nM | -5.81 | 1.93 | -2.71 | -3.61 | -7.42 | -3.47 | -1.57 | -8.09 | -0.04
50 nM | -5.71 | 5.03 | -4.91 | -4.29 | -4.16 | 8.15 | -3.69 | 4.28 | -12.4
500 nM | -4.89 | -0.04 | -3.42 | 12.8 | 1.44 | 14.3 | 3 | 15.5 | –
5000 nM | 3.45 | 1.45 | -4.6 | 35.4 | 6.58 | 25.1 | 9.54 | 33.8 | –
50000 nM | 9 | 3.25 | 8.77 | 69.6 | 8.07 | 37.1 | 24.2 | 72.4 | –
